Read-outs that look alike come from different tables or passages of the source.
Key:
serum prolactin = assay: Serum prolactin levels in rats; type: in vivo, rat (Lewis); conditions: FIG. 11, 0.3, 3 and 30 mg/kg, 1 hour post-treatment
Description: A further mechanistic study wherein rat serum prolactin levels were quantitated 1 hour post-treatment with varying doses of D-1-isopropyl-6-n-propyl-8β-methylthiomethyl ergoline is summarized in FIG. 11. […] A time course/dose response study of D-1-isopropyl-6-n-propyl-8β-methylthio-methyl ergoline effects on murine serum prolactin levels is presented in FIG. 12. […] There is however a disparity between the suppression of prolactin and anti-inflammatory activities of the ergolines with regard to the dose response profiles. Serum prolactin levels are much more sensitive to D-1-isopropyl-6-n-propyl-8β-methylthiomethyl ergoline (maximal suppression ~≤0.1 mg/kg) than are the anti-inflammatory effects 3-10 mg/kg, See FIG. 5).
Both Balb/C mice (male, approximately 20 g, Charles Rivers) and Lewis rats (male, approximately 200 g, Charles River or Harlan Sprague Dawley) were used in neuroendocrine studies. Animals were maintained on a 12:12 hour light:dark cycle and were allowed ad lib access for food (Purina lab chow) and water. Experimental groups consisted of 6 to 8 animals.
After dosing with test compounds, animals were sacrificed by decapitation at 1, 3, 8 or 24 hour intervals. […] Serum prolactin was determined by radioimmunoassay. Serum corticosterone levels were determined with a kit designed for such determinations and obtained from ICN.

[1] = Toxicity study / survival in mice; type: in vivo, mouse; conditions: FIG. 4; survival curve
Description: FIG. 4 Effect of 2 or 4 days treatment with compound 1 on a murine delayed type hypersensitivity (DTH) response (panel A) and toxicity study with compound 1 in mice (panel B). NEG=negative control for DTH; POS=positive control for DTH; CMC=carboxymethylcellulose (vehicle).
The activity of ergoline compounds was also evaluated in a murine delayed-type hypersensitivity (DTH) assay. The DTH assay was performed in substantial accordance with the method set forth in Example 1. Briefly, mice were sensitized by topical administration of picryl chloride on day 1 of the assay. On day 4 paw size was determined and recorded and the paw was then challenged with picryl chloride. The challenged paw was remeasured on day 5 to quantitate the DTH response via the increase in paw size. Results of the effects of compound D-1-isopropyl-6-n-propyl-8β-methylthiomethyl ergoline in the murine DTH model are presented in FIG. 4. FIG. 4, Panel A illustrates the efficacy of compound D-1-isopropyl-6-n-propyl-8β-methylthiomethyl ergoline in reducing paw swelling. […] FIG. 4, Panel B is a survival curve of mice treated with varying dosages of D-1-isopropyl-6-n-propyl-8β-methylthiomethyl ergoline.

[2] = test system: graft versus host response (splenomegaly); type: in vivo, mouse (B6C3F1); conditions: FIG. 13, 10 daily doses
[3] = test system: delayed type hypersensitivity (DTH) in adrenalectomized mice; assay: DTH response in adrenalectomized (ADX) mice; type: in vivo, mouse (Balb/c); conditions: FIG. 10B
Description: CMC= carboxymethylcellulose vehicle control; NEG=negative control for DTH; POS=positive control for DTH.
Dopamine agonists are known to elevate circulating glucocorticoid levels, via activation of the hypothalamo-pituitary-adrenal axis. […] Since glucocorticoids are potential endogenous anti-inflammatory substances, this action is one potential mechanism for the anti-inflammatory effect of the ergolines. However, in subsequent inflammation studies, the anti-inflammatory effects of D-1-isopropyl-6-n-propyl-8β-methylthiomethyl ergoline were retained in mice lacking an adrenal gland and therefore devoid of the increase in circulating corticosterone. (FIG. 10B)
Male Balb/c mice (Charles River) weighing 20 to 25 g were used in all DTH studies. When adrenalectomized studies were carried out, sham surgery and adrenalectomized mice were obtained from the vendor. Animals were maintained on a 12:12 hour light:dark cycle. […]
A DTH response was assessed by measuring the degree of rear foot pad swelling induced by picryl chloride. […] On day 3, mice were anesthetized with methoxyflurane, and the baseline rear foot pad thickness was measured with a micrometer (Mitutoyo) in μ, and was recorded in duplicate. […] Twenty-four hours later, the mice were sacrificed by CO2 asphyxiation and each rear foot pad was again measured in duplicate, and any evidence of foot pad swelling was calculated. […]

[4] = test system: delayed type hypersensitivity (picryl chloride induced foot pad swelling); assay: Murine delayed type hypersensitivity (DTH) response, picryl chloride; type: in vivo, mouse (Balb/c)
Description: The activity of ergoline compounds was also evaluated in a murine delayed-type hypersensitivity (DTH) assay. The DTH assay was performed in substantial accordance with the method set forth in Example 1. Briefly, mice were sensitized by topical administration of picryl chloride on day 1 of the assay. On day 4 paw size was determined and recorded and the paw was then challenged with picryl chloride. The challenged paw was remeasured on day 5 to quantitate the DTH response via the increase in paw size.
Male Balb/c mice (Charles River) weighing 20 to 25 g were used in all DTH studies. When adrenalectomized studies were carried out, sham surgery and adrenalectomized mice were obtained from the vendor. Animals were maintained on a 12:12 hour light:dark cycle. Mice were allowed ad lib access for food (Purina lab chow) and water (normal saline for adrenalectomized animals).
A DTH response was assessed by measuring the degree of rear foot pad swelling induced by picryl chloride. On day 0, mice were sensitized with 100 μl of 5% picryl chloride (in ethanol), which was applied to a shaved abdomen. Negative control groups were shaved but not sensitized. On day 3, mice were anesthetized with methoxyflurane, and the baseline rear foot pad thickness was measured with a micrometer (Mitutoyo) in μ, and was recorded in duplicate. Fifty μl of picryl chloride was then applied to each pad with a pipet (Rainen) while the animal was unconscious. The negative controls also received picryl chloride at this point to control for primary irritancy. Twenty-four hours later, the mice were sacrificed by CO2 asphyxiation and each rear foot pad was again measured in duplicate, and any evidence of foot pad swelling was calculated. The mean rear foot swelling change of both pads for each animal from days 3 to 4 was used as the index of immune function in the DTH assay.
Unless otherwise stated all animals were given four subcutaneous doses of test compound just prior to picryl chloride sensitization on day 0, on day 1 and day 2, and just prior to picryl chloride challenge on day 3. In a few experiments, compounds were administered via oral or intraperitoneal routes. All drugs were delivered as suspensions in 1% carboxy-methylcellulose (also contained 0.8% NaCl, 1% polysorbate-80, 1.4% benzyl alcohol). Carboxymethyl-cellulose (1%) was used in control injections.

[5] = test system: lipoidal amine induced arthritis; assay: Lipoidal amine induced polyarthritis (hind paw volume and weight); type: in vivo, rat (Lewis); conditions: for minimal effective dose: Rattus norvegicus
Description: Lipoidal amine induced polyarthritis is an animal arthritis model originally described by Chang, Y., et al. in Arthritis and Rheumatism 23:62-71 (1980). The lipoidal amine induced polyarthritis results from injection of N,N-dioctadecyl-N^1,N-bis(2-hydroxyethyl) propanediamine (7.5 mg/kg Lewis rat (220-225 g)), which is suspended in oil, intradermally at the base of the tail.

[6] = listed as D-1-isopropyl-6-n-propyl-8β-methylthiomethyl ergoline

## CCCN1C[C@H](CSC)C[C@@H]2c3cccc4c3c(cn4C(C)C)C[C@H]21 [Compound 1, D-1-isopropyl-6-n-propyl-8β-methylthiomethyl ergoline]
Serum prolactin; [6]
  serum prolactin levels: dramatically reduced serum prolactin levels
Serum prolactin; listed as compound 1
  serum prolactin levels: Suppression of serum prolactin levels
[1]
  efficacious DTH dosages relative to toxic level: well within the toxic level of the compound
[2]; listed as D-1-isopropyl-6-n-propyl-8β-methyl-thiomethyl ergoline
  immunosuppressive activity / effect on GVH splenomegaly: unaffected
[2]; [6]
  immunosuppressive activity / effect on GVH splenomegaly: no immunosuppressive activity
[2]; listed as compound 1
  immunosuppressive activity / effect on GVH splenomegaly: Lack of effect
[3]; [6]
  anti-inflammatory effect in mice lacking an adrenal gland: retained
[3]; listed as compound 1
  anti-inflammatory effect in mice lacking an adrenal gland: inhibitory effect
[4]; FIG. 4 Panel A
  reduction of paw swelling in DTH: efficacy
[4]; FIG. 4 Panel A, 4 days vs two day treatment schedule
  reduction of DTH paw swelling, 4 day vs two day treatment: superior efficacy
[4]; FIG. 5
  dose for anti-inflammatory effects: 3 to 10 mg/kg
[5]; FIG. 1
  effect on increase in hind paw volume and weight: Inhibitory effect
[5]; read-out: dosage giving statistically significant decrease in paw volume, FIG. 1 Panel A
  minimal effective dose: ≥ 0.7 mg/kg
[5]; read-out: dosage giving statistically significant decrease in paw weight, FIG. 1 Panel B
  minimal effective dose: ≥ 0.7 mg/kg

From patent publication US5416090A, “Method of treating inflammation” (priority 1992, dated 1995)
